Converted amounts (≈) assume the structure as drawn.
Tests used:
Format in all cases: cell-based
[1] = test system: Trichophyton asteroides; assay: Minimum inhibitory concentration against Trichophyton asteroides, test tube experiment in Sabouraud's dextrose broth
From the text: In the test, Sabouraud's dextrose broth* was used.

[2] = test system: C. albicans KE-2; assay: Inhibition test against pseudomycelium formation of Candida albicans; conditions: minimum effective concentration preventing typical pseudomycelium formation; EMEM with 20 % calf serum, 1 x 10⁶ yeast cells per milliliter, 18 hr. at 37 °C; read-out: Inhibitory Concentration of Pseudomyselium Formation
Description: Inhibition test against pseudomycelium formation of Candida albicans.
C. albicans KE-2 was inoculated to EMEM (Nissan 2 made by Nissui Seiyaku, Ltd.) supplemented with 20 % calf serum so that its final inoculum might be 1 x 10⁶ yeast cells per milliliter. The test compounds were added thereon in two fold dilution series. After inocubation for 18 hr. at 37 °C, the fungal growth in each drug concentration was smeared and fixed on a slide glass, and its morphological feature on the presence or absence of the pseudomycelium formation was examined by a microscope following Giemsa staining. Minimum effective concentration was defined as the lowest concentration of the compound which prevented typical pseudomycelium formation.

[3] = test system: influenza virus Ao/WSN (H₁N₁); assay: Antiviral activity: Plaque Reduction Test in MDCK cells; conditions: unidentified influenza virus, read-out: ED 50 (1) Plaque Reduction Test
[4] = in vitro; conditions: dog, mdck
Description: (3) Colony Formation Test The action to the host cell was examined by the following method: MDCK cells (coming from dog's kidney) were adjusted to a concentration of 200 cells/ml with a growth medium and poured into each pore of Lindbrow's 12 pores microplate 1 ml by 1 ml. The test compound diluted with a growth medium was added to the pores 1 ml by 1 ml, and the whole was cultivated in a cultivating apparatus filled with 5% carbon dioxide gas at 37°C for 7 days. After dyeing with 1% crystal violet dyeing solution for 15 min, the number of cell colonies was counted. The concentration of the test compound which inhibited 50% the growth of cell colonies in comparison with obtained without using the test compound was evaluated as TD₅₀ value for judging the toxicity against cell.

[5] = test system: influenza virus Ao/WSN (H₁N₁); assay: microbe, parasite or virus in culture; conditions: unidentified influenza virus, MDCK, 24 h, read-out: ED 50 (2) Virus Yield Test

Compound	MIC [1]	minimal effective concentration [2]	other results
C=C(c1c(O)cccc1OCCCC)n1ccnc1 [Compound I-4]	0.1 µg/mL (≈ 0.387 µM)	–	–
CCC(CC)=C(c1cc(Cl)ccc1O)n1ccnc1 [Compound I-5]	0.1 µg/mL (≈ 0.361 µM)	0.63 µg/mL	–
CCC(CC)=C(c1cc(Cl)ccc1O)n1cncn1 [Compound I-6]	0.1 µg/mL (≈ 0.36 µM)	–	–
Oc1ccc(Cl)cc1/C(=C/c1ccc(Cl)cc1Cl)n1ccnc1 [Compound I-9]	0.1 µg/mL (≈ 0.273 µM)	–	–
Oc1ccc(Cl)cc1C(=C1CCCCC1)n1ccnc1 [Compound I-22]	0.1 µg/mL (≈ 0.346 µM)	–	–
C=C(c1cc(-c2ccccc2)ccc1OC)n1ccnc1 [Compound I-49]	0.1 µg/mL (≈ 0.362 µM)	–	–
CCC(CC)=C(c1cc(Cl)ccc1OC)n1ccnc1 [Compound I-50]	0.1 µg/mL (≈ 0.344 µM)	0.31 µg/mL	–
CCCCOc1ccc(Cl)cc1C(=C(CC)CC)n1ccnc1 [Compound I-51]	–	0.31 µg/mL	–
CCC(CC)=C(c1cc(Cl)ccc1OC(C)C)n1ccnc1 [Compound I-52]	0.1 µg/mL (≈ 0.314 µM)	0.08 µg/mL	–
COc1ccc(Cl)cc1C(=C1CCCCC1)n1ccnc1 [Compound I-56]	0.1 µg/mL (≈ 0.33 µM)	–	–
COc1ccc(Cl)cc1C(=C1CCCCC1)n1cncn1 [Compound I-57]	–	–	EC50 [3]: 48 µg/mL (≈ 158 µM); CC50 at 168 h [4]: 70 µg/mL (≈ 230 µM); EC50 [5]: 30 µg/mL (≈ 98.8 µM)
CC(C)Oc1ccc(Cl)cc1C(=C1CCCCC1)n1cncn1 [Compound I-58]	–	0.16 µg/mL	–
CC(C)Oc1ccc(Cl)cc1C(=C1CCCCC1)n1ccnc1 [Compound I-66]	0.1 µg/mL (≈ 0.302 µM)	0.08 µg/mL	–
C=C(c1cc(Cl)ccc1OCC(=O)c1ccc(Cl)cc1)n1ccnc1 [Compound I-107]	0.1 µg/mL (≈ 0.268 µM)	–	–

— EP0227100A2, “N-Vinylimidazoles and -triazoles and pharmaceutical compositions containing them” (SHIONOGI SEIYAKU KABUSHIKI KAISHA, priority 1985, dated 1987)
